From patent US10894775B2, “Piperidine derivatives as liver X receptor beta agonists, compositions, and their use” (Merck Sharp & Dohme Corp., priority 2016, dated 2021)
Like-named read-outs stand apart in the source and are kept apart here.

Assays:
[1] = target: T1, glutathione-S-transferase (GST) tagged LXRalpha LBD (ligand binding domain) (Homo sapiens, UniProt Q13133); assay: LanthaScreen TR-FRET Liver X Receptor Coactivator Assay, LXR alpha; assay type: biochemical; conditions: for Emax: read-out: LXR alpha actiivty at max dose (%); for EC50 / LXR alpha IP (nM): potency (Inflection Point) of compound-induced co-activator recruitment, TR-FRET; for EC50: read-out: LXR alpha IP
T1 construct: purchased Invitrogen pv4655
T1 sequence (Q13133 209-447 limits assumed): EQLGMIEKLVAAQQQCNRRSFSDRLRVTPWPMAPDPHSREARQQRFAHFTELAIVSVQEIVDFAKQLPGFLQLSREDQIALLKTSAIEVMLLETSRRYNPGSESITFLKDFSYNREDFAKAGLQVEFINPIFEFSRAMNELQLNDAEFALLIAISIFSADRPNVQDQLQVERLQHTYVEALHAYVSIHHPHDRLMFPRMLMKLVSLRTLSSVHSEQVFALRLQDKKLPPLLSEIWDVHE
Description: (§1) While running the LanthaScreen™ TR-FRET Liver X Receptor Coactivator Assay, LXR alpha-LBD or LXR beta-LBD was added to ligand test compounds followed by addition of a mixture of a fluorescein-labelled coactivator peptide and terbium-conjugated anti-GST antibody. After an incubation period at room temperature, TR-FRET (time-resolved fluorescence resonance energy transfer) was measured using a filter-based instrument capable of TR-FRET, e.g. PerkinElmer Envision.

[2] = target: T2, glutathione-S-transferase (GST) tagged LXRbeta LBD (ligand binding domain) (Homo sapiens, UniProt P55055); assay: LanthaScreen TR-FRET Liver X Receptor Coactivator Assay, LXR beta; assay type: biochemical; conditions: for Emax: read-out: LXR beta actiivty at max dose (%); for EC50: potency (Inflection Point) of compound-induced co-activator recruitment, TR-FRET
T2 construct: purchased Invitrogen pv4658.pps
T2 sequence (P55055 222-460 limits assumed): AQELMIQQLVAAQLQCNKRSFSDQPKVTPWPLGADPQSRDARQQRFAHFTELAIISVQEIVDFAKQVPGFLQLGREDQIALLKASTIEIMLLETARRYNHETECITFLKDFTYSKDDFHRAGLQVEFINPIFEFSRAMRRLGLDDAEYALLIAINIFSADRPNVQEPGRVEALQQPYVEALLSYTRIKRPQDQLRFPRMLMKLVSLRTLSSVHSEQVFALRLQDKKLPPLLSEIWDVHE
Description: as §1

[3] = efficacy (Emax) in relation to reference dual agonist T0901317

SMILES	Emax [1, 3]	EC50 [1]	Emax [2, 3]	EC50 ([2]; read-out: LXR beta IP)	LXR alpha IP (nM) [1]	EC50 ([2]; LXR beta IP (nM))	Emax [2]	Emax [1]
CN(C)C(=O)c1ccc(NCCC[C@@H]2CC23CCN(C(=O)[C@](O)(c2ccccc2)C(F)(F)F)CC3)cc1Cl (single isomer, unassigned) [Example 6-1, 2-chloro-N,N-dimethyl-4-(3-((R or S)-6-((R or S)-3,3,3-trifluoro-2-hydroxy-2-phenylpropanoyl)-6-azaspiro[2.5]octan-1-yl)propylamino)benzamide]	21%	828 nM	30%	15 nM				
CN(C)C(=O)c1ccc(NCCC[C@H]2CC23CCN(C(=O)[C@](O)(c2ccccc2)C(F)(F)F)CC3)cc1Cl (single isomer, unassigned) [Example 6-2, 2-chloro-N,N-dimethyl-4-(3-((S or R)-6-((R or S)-3,3,3-trifluoro-2-hydroxy-2-phenylpropanoyl)-6-azaspiro[2.5]octan-1-yl)propylamino)benzamide]	11%	472 nM	56%	8 nM				
CN(C)C(=O)c1ccc(NCCC[C@H]2CC23CCN(C(=O)[C@](O)(c2ccccc2)C(F)(F)F)CC3)nc1Cl (single isomer, unassigned) [Example 6-3, 2-chloro-N,N-dimethyl-6-(3-((S or R)-6-((R or S)-3,3,3-trifluoro-2-hydroxy-2-phenylpropanoyl)-6-azaspiro[2.5]octan-1-yl)propylamino)nicotin-amide]	24%	1400 nM	49%	14 nM				
O=C(c1ccc(NCCC[C@@H]2CC23CCN(C(=O)[C@](O)(c2ccccc2)C(F)(F)F)CC3)cc1Cl)N1CCCC1 (single isomer, unassigned) [Example 6-4, (R or S)-1-((R or S)-1-(3-(3-chloro-4-(pyrrolidine-1-carbonyl)phenylamino)propyl)-6-azaspiro[2.5]octan-6-yl)-3,3,3-trifluoro-2-hydroxy-2-phenylpropan-1-one]	6%		18%	34 nM	No IP			
CN(C)C(=O)c1c(F)cc(NCCC[C@H]2CC23CCN(C(=O)[C@](O)(c2ccccc2)C(F)(F)F)CC3)cc1F (single isomer, unassigned) [Example 6-5, 2,6-difluoro-N,N-dimethyl-4-(3-((S or R)-6-((R or S)-3,3,3-trifluoro-2-hydroxy-2-phenylpropanoyl)-6-azaspiro[2.5]octan-1-yl)propylamino)benzamide]	19%	2150 nM	24%	49 nM				
CN(C(=O)c1ccc(NCCC[C@@H]2CC23CCN(C(=O)[C@](O)(c2ccccc2)C(F)(F)F)CC3)cc1Cl)C1CC1 (single isomer, unassigned) [Example 6-6, 2-chloro-N-cyclopropyl-N-methyl-4-(3-((R or S)-6-((R or S)-3,3,3-trifluoro-2-hydroxy-2-phenylpropanoyl)-6-azaspiro[2.5]octan-1-yl)propylamino)benzamide]	0%		43%	49 nM	No IP			
CN(C)C(=O)c1ccc(NCCC[C@H]2CC23CCN(C(=O)[C@@](O)(c2ccccc2)C(F)(F)C(F)(F)F)CC3)cc1Cl (single isomer, unassigned) [Example 6-7, 2-chloro-N,N-dimethyl-4-(3-((S or R)-6-((S or R)-3,3,4,4,4-pentafluoro-2-hydroxy-2-phenylbutanoyl)-6-azaspiro[2.5]octan-1-yl)propylamino)benzamide]	9%		91%	68 nM	No IP			
CNC(=O)c1ccc(NCCC[C@@H]2CC23CCN(C(=O)[C@@](O)(C(C)C)C(F)(F)F)CC3)cc1Cl (single isomer, unassigned) [Example 6-8, 2-chloro-4-(3-((R or S)-6-((S or R)-2-hydroxy-3-methyl-2-(trifluoromethyl)butanoyl)-6-azaspiro[2.5]octan-1-yl)propylamino)-N-methylbenzamide]	65%	829 nM	91%	9 nM				
CNC(=O)c1ccc(NCCC[C@@H]2CC23CCN(C(=O)[C@](O)(C(C)C)C(F)(F)F)CC3)cc1Cl (single isomer, unassigned) [Example 6-9, 2-chloro-4-(3-((R or S)-6-((R or S)-2-hydroxy-3-methyl-2-(trifluoromethyl)butanoyl)-6-azaspiro[2.5]octan-1-yl)propylamino)-N-methylbenzamide]	64%	869 nM	60%	21 nM				
CN(C)C(=O)c1ccc(N(C)CCC[C@@H]2CC23CCN(C(=O)[C@](O)(c2ccccc2)C(F)(F)F)CC3)cc1Cl (single isomer, unassigned) [Example 7-1, 2-chloro-N,N-dimethyl-4-(methyl(3-((R or S)-6-((R or S)-3,3,3-trifluoro-2-hydroxy-2-phenylpropanoyl)-6-azaspiro[2.5]octan-1-yl)propyl)amino)benzamide]	28%	683 nM	103%	59 nM				
CN(C)C(=O)c1ccc(NCCC2CC23CCN(C(=O)C2(c4ccccc4)CCCC2)CC3)cc1Cl (single isomer, unassigned) [Example 8-1, (S or R)-2-chloro-N,N-dimethyl-4-(2-(6-(1-phenylcyclopentanecarbonyl)-6-azaspiro[2.5]octan-1-yl)ethylamino)benzamide]	0%				No IP	7 nM	21%	
COc1cccc([C@@](O)(C(=O)N2CCC(CC3CC(Nc4ccc(C(=O)N(C)C)c(Cl)c4)C3)CC2)C(F)(F)F)c1 (single isomer, unassigned) [Example 11-1, 2-chloro-N,N-dimethyl-4-((1R,3s)-3-((1-((R or S)-3,3,3-trifluoro-2-hydroxy-2-(3-methoxyphenyl)propanoyl)piperidin-4-yl)methyl)cyclobutylamino)benzamide]				8 nM	No IP		85%	12%

Now from value to compound, other results behind:

Emax [1, 3]	EC50 [1]	Emax [2, 3]	EC50 ([2]; read-out: LXR beta IP)	LXR alpha IP (nM) [1]	SMILES	EC50 ([2]; LXR beta IP (nM))	Emax [2]	Emax [1]
34%	516 nM	75%	14 nM		CN(C)C(=O)c1ccc(NC[C@H]2C[C@@H]2C2CCN(C(=O)[C@](O)(c3ccccc3)C(F)(F)F)CC2)cc1Cl (single isomer, unassigned) [Example 8-2, 2-chloro-N,N-dimethyl-4-(((1S,2R or 1R,2S)-2-(1-((R or S)-3,3,3-trifluoro-2-hydroxy-2-phenylpropanoyl)piperidin-4-yl)cyclopropyl)methylamino)benzamide]			
35%	421 nM	50%	4 nM		CN(C)C(=O)c1ccc(NC[C@H]2C[C@H]2C2CCN(C(=O)[C@](O)(c3ccccc3)C(F)(F)F)CC2)cc1Cl (single isomer, unassigned) [Example 8-3, 2-chloro-N,N-dimethyl-4-(((1S,2S or 1R,2R)-2-(1-((R or S)-3,3,3-trifluoro-2-hydroxy-2-phenylpropanoyl)piperidin-4-yl)cyclopropyl)methylamino)benzamide]			
22%	797 nM	80%	29 nM		CN(C)C(=O)c1ccc(N(C)CCC2CC23CCN(C(=O)C(C)(C)c2ccccc2)CC3)cc1Cl (single isomer, unassigned) [Example 9-1, (S or R)-2-chloro-N,N-dimethyl-4-(methyl(2-(6-(2-methyl-2-phenylpropanoyl)-6-azaspiro[2.5]octan-1-yl)ethyl)amino)benzamide]			
12%		54%	73 nM	No IP	COc1cccc(C(O)(C(=O)N2CCC3(CCC(Nc4ccc(C(=O)N(C)C)c(Cl)c4)CC3)CC2)C(F)(F)F)c1 (single isomer, unassigned) [Example 10-1, 2-chloro-N,N-dimethyl-4-(3-((R or S)-3,3,3-trifluoro-2-hydroxy-2-(3-methoxyphenyl)propanoyl)-3-azaspiro[5.5]undecan-9-ylamino)benzamide]			
39%	321 nM	57%	6 nM		CN(C)C(=O)c1ccc(NCCC2CC3(CCN(C(=O)C(O)(c4ccccc4)C(F)(F)F)CC3)C2)cc1Cl (single isomer, unassigned) [Example 13-1, 2-chloro-N,N-dimethyl-4-(2-(7-((R or S)-3,3,3-trifluoro-2-hydroxy-2-phenylpropanoyl)-7-azaspiro[3.5]nonan-2-yl)ethylamino)benzamide]			
